Experimental findings from ChEMBL document CHEMBL3525988, “Delayed elimination of SN-38 in cancer patients with severe renal failure” (Drug Metab Dispos, 2011) are described below.

Series [1] is described as follows: Terminal elimination rate constant in cancer patient with severe renal failure administered as infusion after 0.25 to 1.5 hrs by RP-HPLC analysis. The class given is ADME, organism-based. Further details: dosed compound name Irinotecan. The note with it: human, in vivo, iv; read-out: k_elim (converted).
Series [2] is described as follows: Terminal elimination rate constant in cancer patient normal renal function administered as infusion after 0.25 to 1.5 hrs by RP-HPLC analysis. On the set-up: dosed compound name Irinotecan. The class given is ADME, organism-based. The following applies: human, in vivo, iv; read-out: k_elim (converted).

With `CCc1c2c(nc3ccc(O[C@@H]4O[C@H](C(=O)O)[C@@H](O)[C@H](O)[C@H]4O)cc13)-c1cc3c(c(=O)n1C2)COC(=O)[C@]3(O)CC`, the k el is 8.61e-06 s⁻¹ in series [1] and 1.7e-05 s⁻¹ in series [2].
For the compound `CCc1c2c(nc3ccc(O)cc13)-c1cc3c(c(=O)n1C2)COC(=O)[C@]3(O)CC` [7-ETHYL-10-HYDROXYCAMPTOTHECIN], the k el in series [1] is 2.34e-06 s⁻¹; in series [2], 2.26e-05 s⁻¹.
Turning to `CCc1c2c(nc3ccc(OC(=O)N4CCC(N5CCCCC5)CC4)cc13)-c1cc3c(c(=O)n1C2)COC(=O)[C@]3(O)CC` [IRINOTECAN], the k el in series [1] was 2.81e-05 s⁻¹; in series [2], 3.33e-05 s⁻¹.
